Data reported in US20190343425A1, “TREATMENT OF A DISEASE OF THE GASTROINTESTINAL TRACT WITH A TNF INHIBITOR” (Progenity, Inc., priority 2016, published 2019).

Test: Tacrolimus tissue pharmacokinetics, oral versus intra-cecal ingestible device delivery
Assay type: in vivo, Yorkshire-Cross farm swine
Conditions: swine; intra-cecally (ingestible device) vs orally administered; FIG. 76
Protocol: No further randomization procedure was employed.
Animals in Group 1 received an ingestible device containing 0.8 mL of vehicle solution (80% alcohol, 20% HCO-60). Animals in Group 2 received orally […] liquid formulation of tacrolimus at 4 mg/0.8 mL per animal (Prograf: 5 mg/mL). Animals in Group 3 received intra-cecally an ingestible device containing tacrolimus at 1 mg in 0.8 mL per ingestible device. Animals in Group 4 received intra-cecally an ingestible device containing tacrolimus at 2 mg in 0.8 mL per ingestible device. Animals in Group 5 received intra-cecally an ingestible device containing tacrolimus at 4 mg in 0.8 mL per ingestible device. To control for potential confounding effects of the surgery, all groups fast on Day −11 at least 24 hr before being subjected to anesthesia followed by surgical placements of a cecal port by a veterinary surgeon at Day −10. […]
For tissue necropsy, small intestine fluid and cecal fluid were collected separately from all the animals into two separate square plastic bottles, and stored at −20° C. The length and diameter of the cecum and the colon was measured from one animal in each group and recorded for reference. […] All samples were weighed, and the tissue sample weights were recorded. […] Around 3 grams of the total punched sample were collected into a pre-weighed 15-mL conical tube, and the tissue weight was recorded. […]

Q: Which “mean concentration of tacrolimus in the cecum tissue and the proximate colon tissue” value does the source give for `C=CC[C@@H]1/C=C(\C)C[C@H](C)C[C@H](OC)[C@H]2O[C@@](O)(C(=O)C(=O)N3CCCC[C@H]3C(=O)O[C@H](/C(C)=C/[C@@H]3CC[C@@H](O)[C@H](OC)C3)[C@H](C)[C@@H](O)CC1=O)[C@H](C)C[C@@H]2OC` [tacrolimus] here?
A: higher
